pIC50: −log10 of the molar value. Counter-ions that a name gives are not always drawn. Like-named read-outs stand apart in the source and are kept apart here.

The values below come from patent publication US11426473B2, “Nitrogen-containing compound or salt thereof, or metal complex thereof” (FUJIFILM Corporation, priority 2013, dated 2022).

One test concerns the target T1, Integrin αvβ5 (Homo sapiens, UniProt P06756+P18084).
T1 construct: purchased Chemicon International, Inc
Description: Integrin αvβ5 binding affinity test. The protocol:
(§1) […] αvβ5 (Chemicon International, Inc.) was immobilized on each well of a 96-well plate (Corning Inc.). Each well was blocked with a 1% Block Ace (DS Pharma Biomedical Co., Ltd) solution and then washed with PBST (10 mM Na2HPO4 pH 7.5, 150 mM NaCl, and 0.01% Tween 20). Evaluation compound solutions having a 2-fold concentration (10 concentrations of 3.16-fold dilutions from 0.3 μmol/L, buffer (20 mM Tris-HCl pH 7.5, 150 mM NaCl, 1 mM CaCl2, 1 mM MgCl2, and 1 mM MnCl2)) and a 4 μg/mL biotinylated vitronectin solution (vitronectin (Upstate Biotechnology Inc.) was labeled with EZ-Link Sulfo-NHS-Biotinylation Kit (Pierce/Thermo Fisher Scientific Inc.) and then concentration-adjusted) were each added at 50 μL/well, and the plate was shaken at room temperature for 2 hours. After washing with PBST, a 0.2 μg/mL avidin peroxidase (Pierce/Thermo Fisher Scientific Inc.) solution was added thereto, and the plate was shaken at room temperature for 1 hour. After washing with PBST, color was developed by an o-phenylenediamine (Sigma-Aldrich Inc.) solution (the reaction was terminated by the addition of 4 mol/L sulfuric acid), and the absorbance was measured (490 nm, Reference: 595 nm). The IC50 value was calculated using XLfit 3.0 (ID Business Solutions Ltd.). RGDfV (Bachem AG) was measured in duplicate as a QC sample for each plate.

The target in another test is T2, Integrin αvβ3 (Homo sapiens, UniProt P05106+P06756).
T2 construct: purchased Chemicon International, Inc
T2 sequence (P06756 31-889 limits assumed): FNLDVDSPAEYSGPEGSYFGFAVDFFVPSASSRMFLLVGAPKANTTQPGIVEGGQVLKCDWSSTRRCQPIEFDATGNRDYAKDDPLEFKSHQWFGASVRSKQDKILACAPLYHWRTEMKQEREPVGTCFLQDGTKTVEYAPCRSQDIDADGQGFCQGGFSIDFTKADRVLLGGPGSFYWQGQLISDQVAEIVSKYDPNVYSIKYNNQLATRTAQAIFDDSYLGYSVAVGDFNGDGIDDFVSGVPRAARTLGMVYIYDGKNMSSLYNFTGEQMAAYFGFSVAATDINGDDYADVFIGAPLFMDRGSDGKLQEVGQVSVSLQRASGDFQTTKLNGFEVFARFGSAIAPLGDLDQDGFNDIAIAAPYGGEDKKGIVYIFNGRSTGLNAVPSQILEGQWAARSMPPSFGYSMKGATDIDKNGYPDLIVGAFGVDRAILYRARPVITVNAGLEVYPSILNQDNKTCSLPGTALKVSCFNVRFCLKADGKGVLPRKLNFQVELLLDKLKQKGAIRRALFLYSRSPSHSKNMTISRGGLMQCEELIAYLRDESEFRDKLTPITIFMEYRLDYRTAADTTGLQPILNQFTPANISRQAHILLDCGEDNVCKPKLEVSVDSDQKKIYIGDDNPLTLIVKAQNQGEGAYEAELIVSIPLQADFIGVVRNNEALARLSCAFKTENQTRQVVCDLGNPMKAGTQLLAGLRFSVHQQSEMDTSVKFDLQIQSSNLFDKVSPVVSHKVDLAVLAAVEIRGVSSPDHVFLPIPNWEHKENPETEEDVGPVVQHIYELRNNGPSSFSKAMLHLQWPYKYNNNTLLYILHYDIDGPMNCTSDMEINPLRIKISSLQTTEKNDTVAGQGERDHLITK
T2 sequence (P06756 891-1048 partner limits assumed): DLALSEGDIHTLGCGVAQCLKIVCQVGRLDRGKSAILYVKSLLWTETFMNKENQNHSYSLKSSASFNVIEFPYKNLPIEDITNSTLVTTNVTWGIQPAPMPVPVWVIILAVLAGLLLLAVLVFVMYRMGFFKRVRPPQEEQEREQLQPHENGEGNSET
T2 sequence (P05106 27-788): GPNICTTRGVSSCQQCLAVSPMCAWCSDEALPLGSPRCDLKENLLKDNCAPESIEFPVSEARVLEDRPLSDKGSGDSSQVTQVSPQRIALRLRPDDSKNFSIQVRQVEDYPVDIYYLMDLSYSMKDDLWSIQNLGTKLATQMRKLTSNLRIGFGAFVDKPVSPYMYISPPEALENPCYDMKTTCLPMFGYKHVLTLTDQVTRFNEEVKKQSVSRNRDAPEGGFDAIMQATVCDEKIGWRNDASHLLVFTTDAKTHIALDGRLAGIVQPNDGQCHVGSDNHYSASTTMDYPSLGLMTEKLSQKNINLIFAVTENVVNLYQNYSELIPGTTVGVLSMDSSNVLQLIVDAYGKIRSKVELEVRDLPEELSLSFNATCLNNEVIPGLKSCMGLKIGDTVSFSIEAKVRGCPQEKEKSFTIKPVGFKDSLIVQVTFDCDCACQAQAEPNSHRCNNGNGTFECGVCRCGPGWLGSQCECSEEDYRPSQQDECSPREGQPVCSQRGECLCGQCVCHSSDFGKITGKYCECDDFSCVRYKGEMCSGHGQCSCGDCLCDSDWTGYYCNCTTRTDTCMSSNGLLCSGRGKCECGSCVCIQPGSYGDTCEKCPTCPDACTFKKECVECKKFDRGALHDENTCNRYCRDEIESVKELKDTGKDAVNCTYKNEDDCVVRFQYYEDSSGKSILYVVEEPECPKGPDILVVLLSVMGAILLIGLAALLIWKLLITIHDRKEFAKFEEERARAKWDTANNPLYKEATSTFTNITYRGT
Nature of the test: Integrin αvβ3 binding affinity test. The protocol: as §1, with “αvβ3” for “αvβ5”, “T-PBS (PBS containing 0.05%” for “PBST (10 mM Na2HPO4 pH 7.5, 150 mM NaCl, and 0.01%”, “T-PBS,” for “PBST,”

[1] abbreviates: inhibition of biotinylated vitronectin binding to immobilized αvβ5, read-out: IC50 value αvβ5.
Setting [2] is: inhibition of biotinylated vitronectin binding to immobilized αvβ3, read-out: IC50 value αv β3.

T1 sequence (P06756 31-889 limits assumed): as the sequence (P06756 31-889 limits assumed) above
T1 sequence (P06756 891-1048 partner limits assumed): as the sequence (P06756 891-1048 partner limits assumed) above
T1 sequence (P18084 24-799): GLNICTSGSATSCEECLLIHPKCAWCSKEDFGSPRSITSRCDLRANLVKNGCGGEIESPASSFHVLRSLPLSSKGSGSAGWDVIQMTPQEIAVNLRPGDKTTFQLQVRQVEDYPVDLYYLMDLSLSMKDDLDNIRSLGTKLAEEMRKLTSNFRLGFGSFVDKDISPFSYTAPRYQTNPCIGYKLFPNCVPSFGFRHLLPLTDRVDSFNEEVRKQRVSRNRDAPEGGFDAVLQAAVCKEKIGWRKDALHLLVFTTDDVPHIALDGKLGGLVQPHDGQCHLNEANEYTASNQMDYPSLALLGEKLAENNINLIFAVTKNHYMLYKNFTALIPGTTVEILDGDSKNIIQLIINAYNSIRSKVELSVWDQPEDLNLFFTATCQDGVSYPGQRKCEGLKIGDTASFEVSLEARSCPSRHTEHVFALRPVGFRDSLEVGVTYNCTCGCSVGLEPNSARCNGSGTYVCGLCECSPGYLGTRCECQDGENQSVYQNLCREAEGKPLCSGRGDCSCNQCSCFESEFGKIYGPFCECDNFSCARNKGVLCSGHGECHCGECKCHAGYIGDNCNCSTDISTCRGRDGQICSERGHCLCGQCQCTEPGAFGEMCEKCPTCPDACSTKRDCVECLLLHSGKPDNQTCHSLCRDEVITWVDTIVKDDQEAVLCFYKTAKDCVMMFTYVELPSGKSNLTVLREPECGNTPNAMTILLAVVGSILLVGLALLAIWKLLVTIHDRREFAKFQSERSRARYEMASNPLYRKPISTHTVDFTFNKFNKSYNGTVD

For orientation: pIC50 means the IC50 on a negative log10 scale, so that one unit is a factor of ten. Regarding `O=C(O)CC(c1cncc(OCCCC(=O)NCCNC(=O)[C@H](CS(=O)(=O)O)NC(=O)[C@H](CS(=O)(=O)O)NC(=O)CN2CCN(CC(=O)O)CCN(CC(=O)O)CCN(CC(=O)O)CC2)c1)n1ccc2cc(OCCc3ccc4c(n3)NCCC4)ccc21` (stereo partly drawn) [Compound I21, 2,2′,2″-(10-((4R,7R)-16-((5-(2-carboxy-1-(5-(2-(5,6,7,8-tetrahydro-1,8-naphthyridin-2-yl)ethoxy)-1H-indol-1-yl)ethyl)pyridin-3-yl)oxy)-2,5,8,13-tetraoxo-4,7-bis(sulfomethyl)-3,6,9,12-tetraazahexadecyl)-1,4,7,10-tetraazacyclododecane-1,4,7-triyl)triacetic acid], the pIC50 on Integrin αvβ5 (setting [1]) and on Integrin αvβ3 (setting [2]) was more than 9.00 in each case.

With `Cc1cc(OCCCC(=O)NCCNC(=O)[C@H](CS(=O)(=O)O)NC(=O)CCC(NC(=O)CN2CCN(CC(=O)O)CCN(CC(=O)O)CCN(CC(=O)O)CC2)C(=O)N[C@@H](CS(=O)(=O)O)C(=O)NCCNC(=O)CCCOc2cc(C)c(S(=O)(=O)N[C@@H](CNC(=O)c3ccc(CCc4ccc5c(n4)NCCC5)cc3)C(=O)O)c(C)c2)cc(C)c1S(=O)(=O)N[C@@H](CNC(=O)c1ccc(CCc2ccc3c(n2)NCCC3)cc1)C(=O)O` (some centres unmarked) [Compound H9], the pIC50 at Integrin αvβ5 (setting [1]) and on Integrin αvβ3 (setting [2]) was more than 9.00 in each case.

`Cc1cc(OCCCC(=O)NCCNC(=O)C(CS(=O)(=O)O)NC(=O)CN2CCN3CCN4CCN(CC2)CC(=O)[O][In]([O]C(=O)C3)[O]C(=O)C4)cc(C)c1S(=O)(=O)NC(CNC(=O)CCCCc1ccc2c(n1)NCCC2)C(=O)O` (centres unmarked) [AA]: the pIC50 at Integrin αvβ5 and at Integrin αvβ3 was more than 9.00 throughout.

As for `Cc1cc(OCCCC(=O)NCCNC(=O)[C@H](CS(=O)(=O)O)NC(=O)[C@H](CS(=O)(=O)O)NC(=O)CN2CCN(CC(=O)O)CCN(CC(=O)O)CCN(CC(=O)O)CC2)cc(C)c1S(=O)(=O)N[C@@H](CNC(=O)c1ccc(CCc2ccc3c(n2)NCCC3)cc1)C(=O)O` [Compound A8, 2,2′,2″-(10-((4R,7R)-16-(4-(N—((S)-1-carboxy-2-(4-(2-(5,6,7,8-tetrahydro-1,8-naphthyridin-2-yl)ethyl)benzamido)ethyl)sulfamoyl)-3,5-dimethylphenoxy)-2,5,8,13-tetraoxo-4,7-bis(sulfomethyl)-3,6,9,12-tetraazahexadecyl)-1,4,7,10-tetraazacyclododecane-1,4,7-triyl)triacetic acid], the pIC50 on Integrin αvβ5 (setting [1]) and on Integrin αvβ3 (setting [2]) was more than 9.00 each time.

With `Cc1cc(OCCCC(=O)NCCNC(=O)[C@H](CS(=O)(=O)O)NC(=O)CN2CCN(CC(=O)O)CCN(CC(=O)O)CCN(CC(=O)O)CC2)cc(C)c1S(=O)(=O)N[C@@H](CNC(=O)c1ccc(CCc2cccc(N)n2)cc1)C(=O)O` [Compound M2, 2,2′,2″-(10-(2-(((R)-1-((2-(4-(4-(N—((S)-2-(4-(2-(6-aminopyridin-2-yl)ethyl)benzamido)-1-carboxyethyl)sulfamoyl)-3,5-dimethylphenoxy)butanamido)ethyl)amino)-1-oxo-3-sulfopropan-2-yl)amino)-2-oxoethyl)-1,4,7,10-tetraazacyclododecane-1,4,7-triyl)triacetic acid], the pIC50 at Integrin αvβ5 (setting [1]) and at Integrin αvβ3 (setting [2]) was more than 9.00 each time.

`Cc1cc(OCCCC(=O)NCCNC(=O)COCCOCCNC(=O)[C@H](CS(=O)(=O)O)NC(=O)CN2CCN(CC(=O)O)CCN(CC(=O)O)CCN(CC(=O)O)CC2)cc(C)c1S(=O)(=O)N[C@@H](CNC(=O)c1ccc(CCc2ccc3c(n2)NCCC3)cc1)C(=O)O` [Compound G3, 2,2′,2″-(10-((R)-22-(4-(N—((S)-1-carboxy-2-(4-(2-(5,6,7,8-tetrahydro-1,8-naphthyridin-2-yl)ethyl)benzamido)ethyl)sulfamoyl)-3,5-dimethylphenoxy)-2,5,14,19-tetraoxo-4-(sulfomethyl)-9,12-dioxa-3,6,15,18-tetraazadocosyl)-1,4,7,10-tetraazacyclododecane-1,4,7-triyl)triacetic acid]: the pIC50 at Integrin αvβ5 (setting [1]) and at Integrin αvβ3 (setting [2]) was more than 9.00 in each case.

As to `O=C(O)CN1CCN(CC(=O)O)CCN(CC(=O)N[C@@H](CS(=O)(=O)O)C(=O)N[C@@H](CS(=O)(=O)O)C(=O)NCCNC(=O)CCCOc2ccc(S(=O)(=O)N[C@@H](CNC(=O)c3ccc(CCc4ccc5c(n4)NCCC5)cc3)C(=O)O)cc2)CCN(CC(=O)O)CC1` [Compound Y13, 2,2′,2″-(10-((4R,7R)-16-(4-(N—((S)-1-carboxy-2-(4-(2-(5,6,7,8-tetrahydro-1,8-naphthyridin-2-yl)ethyl)benzamido)ethyl)sulfamoyl)phenoxy)-2,5,8,13-tetraoxo-4,7-bis(sulfomethyl)-3,6,9,12-tetraazahexadecyl)-1,4,7,10-tetraazacyclododecane-1,4,7-triyl)triacetic acid hexasodium salt], the pIC50 on Integrin αvβ5 (setting [1]) and on Integrin αvβ3 (setting [2]) was more than 9.00 throughout.

As to `Cc1cc(OCCCC(=O)NCCNC(=O)[C@H](CS(=O)(=O)O)NC(=O)CN2CCN(CC(=O)O)CCN(CC(=O)O)CCN(CC(=O)O)CC2)cc(C)c1S(=O)(=O)N[C@H](CNC(=O)CCCCc1ccc2c(n1)NCCC2)C(=O)O` [Compound K8, 2,2′,2′-(10-(2-(((R)-1-((2-(4-(4-(N—((R)-1-carboxy-2-(5-(5,6,7,8-tetrahydro-1,8-naphthyridin-2-yl)pentanamido)ethyl)sulfamoyl)-3,5-dimethylphenoxy)butanamido)ethyl)amino)-1-oxo-3-sulfopropan-2-yl)amino)-2-oxoethyl)-1,4,7,10-tetraazacyclododecane-1,4,7-triyl)triacetic acid], the pIC50 was 8.00 to 9.00 on Integrin αvβ5 (setting [1]) and more than 9.00 at Integrin αvβ3 (setting [2]).

In the case of `Cc1cc(OCCCC(=O)NCCNC(=O)[C@H](CS(=O)(=O)O)NC(=O)[C@H](CS(=O)(=O)O)NC(=S)Nc2ccc(C[C@@H](CN(CC(=O)O)CC(C)N(CC(=O)O)CC(=O)O)N(CC(=O)O)CC(=O)O)cc2)cc(C)c1S(=O)(=O)N[C@@H](CNC(=O)c1ccc(CCc2ccc3c(n2)NCCC3)cc1)C(=O)O` (stereo partly drawn) [Compound R3, 2,2′-((1-(((S)-2-(bis(carboxymethyl)amino)-3-(4-(3-((R)-1-(((R)-1-((2-(4-(4-(N—((S)-1-carboxy-2-(4-(2-(5,6,7,8-tetrahydro-1,8-naphthyridin-2-yl)ethyl)benzamido)ethyl)sulfamoyl)-3,5-dimethylphenoxy)butanamido)ethyl)amino)-1-oxo-3-sulfopropan-2-yl)amino)-1-oxo-3-sulfopropan-2-yl)thioureido)phenyl)propyl) (carboxymethyl)amino)propan-2-yl)azanediyl)diacetic acid], the pIC50 on Integrin αvβ5 (setting [1]) and at Integrin αvβ3 (setting [2]) was more than 9.00 each time.

Consider `Cc1cc(OCCCC(=O)NCCNC(=O)[C@H](CS(=O)(=O)O)NC(=O)CN2CCN(CC(=O)O)CCN(CC(=O)O)CCN(CC(=O)O)CC2)cc(C)c1S(=O)(=O)N[C@@H](CNC(=O)c1ccc(CCc2ccc3c(n2)NCCC3)cc1)C(=O)O` [Compound B2, 2,2′,2″-(10-(2-(((R)-1-((2-(4-(4-(N—((S)-1-carboxy-2-(4-(2-(5,6,7,8-tetrahydro-1,8-naphthyridin-2-yl)ethyl)benzamido)ethyl)sulfamoyl)-3,5-dimethylphenoxy)butanamido)ethyl)amino)-1-oxo-3-sulfopropan-2-yl)amino)-2-oxoethyl)-1,4,7,10-tetraazacyclododecane-1,4,7-triyl)triacetic acid], for which the pIC50 at Integrin αvβ5 (setting [1]) and at Integrin αvβ3 (setting [2]) was more than 9.00 throughout.
